The text below walks through data of patent US8710045B2, “Agents for preventing and treating disorders involving modulation of the ryanodine receptors” (The Trustees of Columbia University in the City of New York, priority 2004, dated 2014).

Molecules are shown by their SMILES. “And” between values parts separate entries of the source, which are not always exact repeats. Identical values can stand only once.

The target of data set [1] is hERG current (Homo sapiens, UniProt Q12809). Briefly: hERG current, PatchXpress 7000A automatic parallel patch clamp in hERG-transfected HEK 293 cells (Example 6). As to conditions: for Individual Data (% Inhibition): single cell; for hERG current inhibition at the highest concentration tested: highest concentration tested (10 μM). As to the method: (§1) HEK293 cells were transfected with a plasmid containing the hERG cDNA and a neomycin resistance gene. Stable transfectants were selected by culturing the cells in the presence of G418. The selection pressure was maintained by continued culture in the presence of G418. […] Cells for use in electrophysiology were cultured in 35 mm dishes.
(§2) Onset and steady state block of hERG current was measured using a pulse pattern with fixed amplitudes (conditioning prepulse: +20 mV for 2 seconds; test pulse: −50 mV for 2 seconds) repeated at 10 second intervals, from a holding potential of −80 mV. Peak tail current was measured during the 2 second step to −50 mV. A steady state was maintained for at least 30 seconds before applying the test compound or the positive control. Peak tail current was monitored until a new steady state was achieved. Test compound concentrations were applied cumulatively in ascending order without washout between applications.
(§3) Data acquisition and analysis was performed using the suite of pCLAMP (Vre. 8.2) programs (Axon Instruments, Union City, Calif.). Steady state was defined by the limiting constant rate of change with time (linear time dependence). The steady state before and after application of the test or control compounds was used to calculate the percentage of current inhibited at each concentration. […] Nonlinear squares fits were solved with the Solver add-in for Excel 2000 (Microsoft, Redmond, Wash.).
(§4) Multiple compounds of the invention were tested for their effects on hERG currents. The compounds tested were: ARM036-Na, ARM047, ARM048, ARM050, ARM057, ARM064, ARM074, ARM075, ARM076, ARM077, ARM101, ARM102, ARM103, ARM104, ARM106, ARM107 and ARM26. […] Electrophysiological recordings were made using the PatchXpress 7000 A (Molecular Devices) automatic parallel patch clamp system. […] The duration of exposure to each test concentration was 5 minutes.
(In general: Block of hERG is tested as a sign of cardiac risk.)

Data set [2] has as its target T1, PKA-phosphorylated RyR2 (Homo sapiens, UniProt Q92736).
T1 construct: from tissue
Kind of data set: FKBP12.6 rebinding assay: FKBP12.6 binding to PKA-phosphorylated RyR2 in cardiac SR. As to conditions: compound 0.5-1000 nM; Michaelis-Menten curve fitting. As to the method: Samples are centrifuged at 95,000 g for 10 min and the pellets are washed three times in 0.2 ml imidazole buffer. The final pellets are pooled and resuspended in imidazole buffer (final concentration≈10 μg/μl). […] Samples then are centrifuged at 100,000 g for 10 minutes and pellets washed 3 times with imidizol buffer. […] Immunoblots are developed using an anti-FKBP antibody (1:3,000 dilution). […] The intracellular solution contains (in mM): CsCl, 60; CaCl2, 1; EGTA, 11; MgCl2, 1; K2ATP, 5; HEPES, 10; aspartic acid, 50; pH 7.4 (CsOH). Under these conditions, it is expected that the measured current was carried by Ba^2+ primarily through L-type calcium channels which is referred to as ICa,L. Drugs are applied by a local solution changer and reach the cell membrane within 1 s.
The FKBP12.6 rebinding assay described above is used to determine the amount of FKBP12.6 binding to PKA-phosphorylated RyR2 at various concentrations (0.5-1000 nM) of the compounds shown. EC50 values are calculated using Michaelis-Menten curve fitting.
The EC50 values are calculated using Michaelis-Menten curve fitting.

The target of data set [3] is hERG (Homo sapiens, UniProt Q12809). Kind of data set: hERG current, PatchXpress 7000A automatic parallel patch clamp in hERG-transfected HEK 293 cells (Example 6). As to conditions: human, HEK 293 cells stably transfected with hERG cDNA. As to the method:
as §1, §2, §3, §4

Setting [4] is: Individual Data (% Inhibition), single cell.

T1 sequence (Q92736 whole entry): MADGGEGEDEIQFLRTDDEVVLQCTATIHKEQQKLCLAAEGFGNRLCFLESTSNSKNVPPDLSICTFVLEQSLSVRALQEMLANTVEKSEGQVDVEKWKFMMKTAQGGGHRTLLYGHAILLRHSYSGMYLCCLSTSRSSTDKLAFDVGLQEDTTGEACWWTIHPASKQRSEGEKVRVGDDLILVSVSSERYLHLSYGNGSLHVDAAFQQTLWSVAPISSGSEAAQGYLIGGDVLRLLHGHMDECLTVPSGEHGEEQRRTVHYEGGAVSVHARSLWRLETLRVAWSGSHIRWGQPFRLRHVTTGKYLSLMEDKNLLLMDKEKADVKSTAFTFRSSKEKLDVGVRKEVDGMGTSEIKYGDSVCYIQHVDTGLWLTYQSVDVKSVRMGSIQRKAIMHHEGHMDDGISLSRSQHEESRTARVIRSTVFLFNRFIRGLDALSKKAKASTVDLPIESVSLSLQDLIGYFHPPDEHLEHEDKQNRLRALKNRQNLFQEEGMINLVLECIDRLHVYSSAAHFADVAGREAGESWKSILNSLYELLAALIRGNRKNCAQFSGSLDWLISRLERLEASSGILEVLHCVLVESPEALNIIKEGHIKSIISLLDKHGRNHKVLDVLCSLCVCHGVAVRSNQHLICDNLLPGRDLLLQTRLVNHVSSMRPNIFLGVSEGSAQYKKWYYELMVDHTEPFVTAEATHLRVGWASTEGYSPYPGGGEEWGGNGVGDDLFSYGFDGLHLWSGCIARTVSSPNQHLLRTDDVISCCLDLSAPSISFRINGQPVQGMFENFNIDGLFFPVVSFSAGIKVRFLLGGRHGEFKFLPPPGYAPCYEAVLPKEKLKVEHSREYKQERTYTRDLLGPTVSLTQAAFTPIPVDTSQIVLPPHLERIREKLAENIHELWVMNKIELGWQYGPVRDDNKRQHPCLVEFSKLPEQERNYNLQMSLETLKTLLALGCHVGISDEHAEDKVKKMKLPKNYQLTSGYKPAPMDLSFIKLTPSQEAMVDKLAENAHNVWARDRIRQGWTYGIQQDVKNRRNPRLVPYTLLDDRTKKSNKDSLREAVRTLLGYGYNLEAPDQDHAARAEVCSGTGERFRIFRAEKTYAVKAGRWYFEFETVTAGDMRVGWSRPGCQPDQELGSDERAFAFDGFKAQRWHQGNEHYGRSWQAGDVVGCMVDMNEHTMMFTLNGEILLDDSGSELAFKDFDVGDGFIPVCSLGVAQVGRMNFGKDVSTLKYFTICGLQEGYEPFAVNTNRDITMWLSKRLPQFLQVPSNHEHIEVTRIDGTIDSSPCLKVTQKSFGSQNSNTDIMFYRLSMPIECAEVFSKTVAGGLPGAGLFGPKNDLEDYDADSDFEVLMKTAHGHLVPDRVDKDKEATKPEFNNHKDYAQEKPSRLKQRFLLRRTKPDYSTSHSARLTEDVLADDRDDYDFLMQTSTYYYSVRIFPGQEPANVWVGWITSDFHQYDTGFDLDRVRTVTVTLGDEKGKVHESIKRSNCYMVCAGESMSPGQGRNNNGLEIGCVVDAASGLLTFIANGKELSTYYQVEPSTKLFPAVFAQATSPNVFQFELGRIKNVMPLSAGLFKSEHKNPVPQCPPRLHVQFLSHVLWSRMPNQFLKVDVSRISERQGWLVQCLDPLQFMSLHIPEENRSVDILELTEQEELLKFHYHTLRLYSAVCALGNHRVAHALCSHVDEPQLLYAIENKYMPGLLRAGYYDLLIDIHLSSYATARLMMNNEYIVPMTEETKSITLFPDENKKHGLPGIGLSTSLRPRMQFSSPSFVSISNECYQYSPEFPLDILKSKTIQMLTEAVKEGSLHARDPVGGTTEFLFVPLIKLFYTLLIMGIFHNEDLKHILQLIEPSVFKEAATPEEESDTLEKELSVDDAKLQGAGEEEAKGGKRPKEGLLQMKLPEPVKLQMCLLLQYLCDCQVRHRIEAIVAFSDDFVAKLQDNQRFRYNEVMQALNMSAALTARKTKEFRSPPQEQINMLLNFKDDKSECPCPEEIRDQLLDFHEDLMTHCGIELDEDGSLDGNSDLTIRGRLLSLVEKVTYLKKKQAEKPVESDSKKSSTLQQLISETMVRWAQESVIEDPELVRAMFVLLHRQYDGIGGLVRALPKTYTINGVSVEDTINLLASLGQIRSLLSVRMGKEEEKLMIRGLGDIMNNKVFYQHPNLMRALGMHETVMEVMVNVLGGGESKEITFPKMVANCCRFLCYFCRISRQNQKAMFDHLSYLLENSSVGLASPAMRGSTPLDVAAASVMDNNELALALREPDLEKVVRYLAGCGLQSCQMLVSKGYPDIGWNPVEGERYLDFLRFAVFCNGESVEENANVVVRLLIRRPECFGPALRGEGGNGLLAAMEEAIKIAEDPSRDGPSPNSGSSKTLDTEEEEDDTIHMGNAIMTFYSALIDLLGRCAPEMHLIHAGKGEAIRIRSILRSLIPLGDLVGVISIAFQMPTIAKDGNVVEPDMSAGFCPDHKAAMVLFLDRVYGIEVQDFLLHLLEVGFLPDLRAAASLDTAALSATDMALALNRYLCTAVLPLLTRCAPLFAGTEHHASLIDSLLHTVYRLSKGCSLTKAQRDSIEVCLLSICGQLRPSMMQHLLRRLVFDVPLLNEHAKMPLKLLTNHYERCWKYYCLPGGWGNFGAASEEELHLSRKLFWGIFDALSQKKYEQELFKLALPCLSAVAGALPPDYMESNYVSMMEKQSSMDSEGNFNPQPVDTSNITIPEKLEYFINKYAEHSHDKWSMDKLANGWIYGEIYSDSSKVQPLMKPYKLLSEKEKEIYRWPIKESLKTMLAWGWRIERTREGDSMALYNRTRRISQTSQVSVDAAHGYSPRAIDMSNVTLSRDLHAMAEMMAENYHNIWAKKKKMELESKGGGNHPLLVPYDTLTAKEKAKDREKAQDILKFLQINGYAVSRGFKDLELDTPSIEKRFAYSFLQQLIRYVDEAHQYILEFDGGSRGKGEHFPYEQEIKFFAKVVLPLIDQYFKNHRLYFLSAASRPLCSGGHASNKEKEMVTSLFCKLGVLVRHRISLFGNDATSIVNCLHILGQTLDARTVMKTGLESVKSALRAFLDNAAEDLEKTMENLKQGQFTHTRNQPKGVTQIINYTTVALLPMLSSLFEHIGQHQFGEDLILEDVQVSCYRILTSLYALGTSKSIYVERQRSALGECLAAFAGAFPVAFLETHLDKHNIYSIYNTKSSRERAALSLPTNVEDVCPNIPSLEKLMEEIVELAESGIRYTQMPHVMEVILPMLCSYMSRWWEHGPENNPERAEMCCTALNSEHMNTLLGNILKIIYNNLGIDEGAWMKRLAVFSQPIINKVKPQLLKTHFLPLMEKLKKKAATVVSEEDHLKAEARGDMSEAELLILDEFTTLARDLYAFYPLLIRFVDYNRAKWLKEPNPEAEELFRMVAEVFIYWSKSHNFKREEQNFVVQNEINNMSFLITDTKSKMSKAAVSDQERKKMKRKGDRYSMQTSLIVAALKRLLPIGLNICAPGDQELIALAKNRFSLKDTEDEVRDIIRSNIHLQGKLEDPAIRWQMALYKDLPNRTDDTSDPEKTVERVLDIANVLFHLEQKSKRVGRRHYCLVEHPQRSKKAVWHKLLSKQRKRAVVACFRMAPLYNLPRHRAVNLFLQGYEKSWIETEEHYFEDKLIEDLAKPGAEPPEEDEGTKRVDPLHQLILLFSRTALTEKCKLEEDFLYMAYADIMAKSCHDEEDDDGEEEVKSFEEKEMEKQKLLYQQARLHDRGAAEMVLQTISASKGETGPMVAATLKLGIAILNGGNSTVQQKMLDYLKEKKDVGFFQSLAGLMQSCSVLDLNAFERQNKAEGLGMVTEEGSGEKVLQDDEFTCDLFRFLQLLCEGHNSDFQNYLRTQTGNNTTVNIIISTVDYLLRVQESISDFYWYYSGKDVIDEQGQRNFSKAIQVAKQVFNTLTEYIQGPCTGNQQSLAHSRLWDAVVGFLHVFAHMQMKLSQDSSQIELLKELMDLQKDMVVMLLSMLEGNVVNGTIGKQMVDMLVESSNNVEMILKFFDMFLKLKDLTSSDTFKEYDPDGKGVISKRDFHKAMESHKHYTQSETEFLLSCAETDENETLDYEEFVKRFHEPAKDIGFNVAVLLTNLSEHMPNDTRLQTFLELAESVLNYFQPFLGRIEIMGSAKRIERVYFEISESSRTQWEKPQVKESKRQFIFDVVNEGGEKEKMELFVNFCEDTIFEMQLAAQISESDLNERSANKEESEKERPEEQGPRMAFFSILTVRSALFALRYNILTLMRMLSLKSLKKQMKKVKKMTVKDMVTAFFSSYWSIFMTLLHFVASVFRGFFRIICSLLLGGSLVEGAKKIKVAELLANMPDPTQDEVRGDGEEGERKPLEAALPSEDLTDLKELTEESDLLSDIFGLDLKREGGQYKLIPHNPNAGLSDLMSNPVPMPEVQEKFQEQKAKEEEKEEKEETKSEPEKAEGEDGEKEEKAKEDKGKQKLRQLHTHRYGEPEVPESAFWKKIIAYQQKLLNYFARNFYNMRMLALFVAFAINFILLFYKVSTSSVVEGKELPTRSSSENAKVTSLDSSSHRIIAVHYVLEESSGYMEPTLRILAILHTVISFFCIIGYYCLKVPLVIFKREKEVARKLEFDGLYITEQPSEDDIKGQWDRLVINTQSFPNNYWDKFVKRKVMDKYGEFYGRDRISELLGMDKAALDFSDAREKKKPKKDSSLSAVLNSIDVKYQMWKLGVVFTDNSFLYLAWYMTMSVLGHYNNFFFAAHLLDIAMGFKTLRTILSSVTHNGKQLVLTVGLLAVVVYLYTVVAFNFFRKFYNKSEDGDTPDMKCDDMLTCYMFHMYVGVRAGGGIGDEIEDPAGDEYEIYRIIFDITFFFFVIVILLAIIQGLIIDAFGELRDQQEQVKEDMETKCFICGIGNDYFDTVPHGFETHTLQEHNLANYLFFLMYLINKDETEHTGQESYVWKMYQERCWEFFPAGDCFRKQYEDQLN
T1 sequence (P68106 whole entry partner): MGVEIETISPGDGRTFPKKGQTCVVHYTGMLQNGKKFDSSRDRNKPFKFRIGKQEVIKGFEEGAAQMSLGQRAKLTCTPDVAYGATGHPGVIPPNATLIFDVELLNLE

For `O=C(O)C(=O)N1CCSc2ccccc2C1` [S77], the “Mean % hERG Inhibition” value came out at 1.3% in data set [1] (0.01 μM), 7.5% in data set [1] (0.1 μM), 3.6% in data set [1] (1 μM) and 4.1% in data set [1] (10 μM). Also, the “Individual Data (% Inhibition)” value was 1.4% and 1.1% in data set [1] (0.01 μM, listed as ARM077, 0.01 µM); 11.4% and 3.6% in data set [1] (0.1 μM, listed as ARM077, 0.1 µM); 3.1% and 4.0% in data set [1] (1 μM, listed as ARM077, 1 µM); 0.9% and 7.2% in data set [1] (10 μM, listed as ARM077, 10 µM). The “hERG current inhibition at the highest concentration tested” value (shortened to “hERG current inhibition”) in data set [1] is given as “less than 50%”. Further, the EC50 in data set [2] is 60 nM.
For `COc1ccc2c(c1)CN(C(=O)C(=O)O)CCS2(=O)=O` [S104], the “Mean % hERG Inhibition” value in data set [1] (0.01 μM) is 1.6%; in data set [1] (0.1 μM), 2.5%; in data set [1] (1 μM) it was 4.6%; in data set [1] (10 μM), 7.4%. Further, the “Individual Data (% Inhibition)” value in data set [1] (0.01 μM, listed as ARM104, 0.01 µM) was 1.2% and 1.9%; in data set [1] (0.1 μM, listed as ARM104, 0.1 µM), 1.1% and 3.9%; in data set [1] (1 μM, listed as ARM104, 1 µM) it was 3.1% and 6.0%; in data set [1] (10 μM, listed as ARM104, 10 µM) it was 8.3% and 6.5%. The “hERG current inhibition” value in data set [1] is on record as “less than 50%”. Further, in data set [2], the EC50 was 111 nM.
In data set [1], `COc1ccc2c(c1)CNCCS2` [S26] had an IC50 of 7030 nM. The “Individual Data (% Inhibition)” value in data set [1] (0.01 μM) amounted to 8.7%; in data set [1] (0.1 μM), 8.6%; in data set [1] (1 μM) it was 13.2%; in data set [1] (10 μM) it was 60.1%. Further, the figures for the inhibition at 5 min, 0.01 µM in data set [3] (setting [4]) and in data set [3] (Mean % hERG Inhibition) were 9.1% and 8.9%, respectively. Moreover, the inhibition at 5 min, 0.1 µM in data set [3] (setting [4]) stood at 12.3%; in data set [3] (Mean % hERG Inhibition), 10.5%. Further, the inhibition at 5 min, 1 µM in data set [3] (setting [4]) came out at 11.3%; in data set [3] (Mean % hERG Inhibition) it was 12.3%. Moreover, the inhibition at 5 min, 10 µM worked out at 56.4% in data set [3] (setting [4]) and 58.3% in data set [3] (Mean % hERG Inhibition). The EC50 in data set [2] was found to be 40 nM.
Regarding `O=C(NO)N1CCSc2ccccc2C1` [S74], the “Mean % hERG Inhibition” value in data set [1] (0.01 μM) worked out at 1.9%; in data set [1] (0.1 μM), 4.8%; in data set [1] (1 μM), 1.3%; in data set [1] (10 μM) it was 9.5%. Further, the “Individual Data (% Inhibition)” value in data set [1] (0.01 μM, listed as ARM074, 0.01 µM) is 0.8% and 3.0%; in data set [1] (0.1 μM, listed as ARM074, 0.1 µM) it was 5.9% and 3.7%; in data set [1] (1 μM, listed as ARM074, 1 µM), 0.2% and 2.4% and 5.6%; in data set [1] (10 μM, listed as ARM074, 10 µM), 9.3% and 9.6% and 14.0%. In data set [2], a half-maximal effect (EC50) was put at 220 nM.
For `COc1ccc2c(c1)CN(C(=O)N1CCCCC1)CCS2` [S50], the “Mean % hERG Inhibition” value in data set [1] (0.01 μM) worked out at 1.8%; in data set [1] (0.1 μM), 3.7%; in data set [1] (1 μM), 6.1%; in data set [1] (10 μM) it was 24.2%. The “Individual Data (% Inhibition)” value was 1.1% and 2.4% in data set [1] (0.01 μM, listed as ARM050, 0.01 µM); 2.7% and 4.7% in data set [1] (0.1 μM, listed as ARM050, 0.1 µM); 7.1% and 5.1% in data set [1] (1 μM, listed as ARM050, 1 µM); 27.0% and 21.3% in data set [1] (10 μM, listed as ARM050, 10 µM). Also, the “hERG current inhibition” value in data set [1] is on record as “less than 50%”. Further, in data set [2], the EC50 is 40 nM.
In turn, `COc1ccc2c(c1)CN(C(=O)N1CCN(Cc3ccc4c(c3)OCO4)CC1)CCS2` [S47] had an IC50 in data set [1] of 2500 nM. For the same compound, the “Mean % hERG Inhibition” value was found to be 2.7% in data set [1] (0.01 μM), 9.7% in data set [1] (0.1 μM), 29.6% in data set [1] (1 μM) and 78.0% in data set [1] (10 μM). For the same compound, the “Individual Data (% Inhibition)” value is 1.7% and 3.7% in data set [1] (0.01 μM, listed as ARM047, 0.01 µM); 6.5% and 12.9% in data set [1] (0.1 μM, listed as ARM047, 0.1 µM); 30.8% and 20.4% and 37.5% in data set [1] (1 μM, listed as ARM047, 1 µM); 82.1% and 75.9% in data set [1] (10 μM, listed as ARM047, 10 µM). The compound also came in with an EC50 in data set [2] of 20 nM.
As to `COC(=O)C(=O)N1CCSc2ccc(OC)cc2C1` [S57], the “Mean % hERG Inhibition” value turned out to be 0.2% in data set [1] (0.01 μM), 7.3% in data set [1] (0.1 μM), 2.7% in data set [1] (1 μM) and 13.6% in data set [1] (10 μM). Moreover, the “Individual Data (% Inhibition)” value in data set [1] (0.01 μM, listed as ARM057, 0.01 µM) was 0.3% and 0.0%; in data set [1] (0.1 μM, listed as ARM057, 0.1 µM), 4.1% and 10.4%; in data set [1] (1 μM, listed as ARM057, 1 µM), 5.3% and 0.1%; in data set [1] (10 μM, listed as ARM057, 10 µM), 18.3% and 8.8%. Further, the “hERG current inhibition” value in data set [1] is listed as “less than 50%”. The same compound returned an EC50 in data set [2] of 73 nM.
For the compound `O=C(N1CCCCC1)N1CCSc2ccccc2C1` [S102], the “Mean % hERG Inhibition” value amounted to 2.5% in data set [1] (0.01 μM), 4.2% in data set [1] (0.1 μM), 5.7% in data set [1] (1 μM) and 47.3% in data set [1] (10 μM). Besides, the “Individual Data (% Inhibition)” value was 0.5% and 4.4% in data set [1] (0.01 μM, listed as ARM102, 0.01 µM); 1.8% and 6.5% in data set [1] (0.1 μM, listed as ARM102, 0.1 µM); 0.8% and 10.5% in data set [1] (1 μM, listed as ARM102, 1 µM); 46.2% and 48.3% in data set [1] (10 μM, listed as ARM102, 10 µM). Further, the “hERG current inhibition” value in data set [1] is given as “less than 50%”. The compound also came in with an EC50 in data set [2] of 135 nM.
`COc1ccc2c(c1)CN(C(=O)CCC(=O)N1CCSc3ccc(OC)cc3C1)CCS2` [S19] gave an EC50 in data set [2] of 265 nM.
In data set [2], `COc1ccc2c(c1)CN(C(=O)c1cccc(C(=O)N3CCSc4ccc(OC)cc4C3)n1)CCS2` [S22] returned an EC50 of 355 nM.
Still for that read-out and setting: the result for `COc1ccc2c(c1)CN(S(C)(=O)=O)CCS2` [S4] reads 102 nM; that for `COc1ccc2c(c1)CN(C(=O)CCN1CCC(Cc3ccccc3)CC1)CCS2(=O)=O` [S23], 268 nM; that for `COc1ccc2c(c1)CN(C(=O)c1ccccc1)CCS2` [S9], 205 nM.
The same measure, in the same setting: the result for `C=CC(=O)N1CCSc2ccc(OC)cc2C1` [S27] reads ~50 nM.
The same measure, in the same setting: to `COc1ccc2c(c1)CN(C(=O)N1CCN(c3ccccc3)CC1)CCS2` [S53] belongs 200 nM; to `c1ccc2c(c1)CNCCS2` [S68], ~100 nM; to `CCN(CC)C(=O)C(=O)N1CCSc2ccc(OC)cc2C1` [S59], 102 nM.
`COc1ccc2c(c1)CN(C(=O)CCN1CCCCC1c1nnc(Cc3ccccc3)o1)CCS2` (stereo not shown) [S55] registered an EC50 in data set [2] of 111 nM.
As for `COc1ccc2c(c1)C(=O)NCCS2` [S25], in data set [2], the midpoint of the response, the EC50, lay at 40 nM. Against the preceding compound, the EC50 is about 2.8-fold lower.

A word on the EC50: it is the concentration that produces a half-maximal response. A lower EC50 goes with higher potency in that assay. As usually defined, the IC50 is the midpoint of a concentration-inhibition curve. The low end stands for inhibition by little substance, the high end for a need for much substance. In general, inhibition refers to the drop in the measured response relative to a control, in per cent.
